Results published in patent US12643910B2, “Substituted pyrazolo[3,4-b]pyridines as ectonucleotide pyrophosphatase/phosphodiesterase 1 (ENPP1) modulators” (SANFORD BURNHAM PREBYS MEDICAL DISCOVERY INSTITUTE, priority 2019, dated 2026).

Columns and labels:
ENPP3 = target: T1, ENPP3 (Homo sapiens, UniProt O14638); experiment: ENPP3 Km ATP assay; type: biochemical; conditions: ATP at Km
T1 sequence (O14638 1-875): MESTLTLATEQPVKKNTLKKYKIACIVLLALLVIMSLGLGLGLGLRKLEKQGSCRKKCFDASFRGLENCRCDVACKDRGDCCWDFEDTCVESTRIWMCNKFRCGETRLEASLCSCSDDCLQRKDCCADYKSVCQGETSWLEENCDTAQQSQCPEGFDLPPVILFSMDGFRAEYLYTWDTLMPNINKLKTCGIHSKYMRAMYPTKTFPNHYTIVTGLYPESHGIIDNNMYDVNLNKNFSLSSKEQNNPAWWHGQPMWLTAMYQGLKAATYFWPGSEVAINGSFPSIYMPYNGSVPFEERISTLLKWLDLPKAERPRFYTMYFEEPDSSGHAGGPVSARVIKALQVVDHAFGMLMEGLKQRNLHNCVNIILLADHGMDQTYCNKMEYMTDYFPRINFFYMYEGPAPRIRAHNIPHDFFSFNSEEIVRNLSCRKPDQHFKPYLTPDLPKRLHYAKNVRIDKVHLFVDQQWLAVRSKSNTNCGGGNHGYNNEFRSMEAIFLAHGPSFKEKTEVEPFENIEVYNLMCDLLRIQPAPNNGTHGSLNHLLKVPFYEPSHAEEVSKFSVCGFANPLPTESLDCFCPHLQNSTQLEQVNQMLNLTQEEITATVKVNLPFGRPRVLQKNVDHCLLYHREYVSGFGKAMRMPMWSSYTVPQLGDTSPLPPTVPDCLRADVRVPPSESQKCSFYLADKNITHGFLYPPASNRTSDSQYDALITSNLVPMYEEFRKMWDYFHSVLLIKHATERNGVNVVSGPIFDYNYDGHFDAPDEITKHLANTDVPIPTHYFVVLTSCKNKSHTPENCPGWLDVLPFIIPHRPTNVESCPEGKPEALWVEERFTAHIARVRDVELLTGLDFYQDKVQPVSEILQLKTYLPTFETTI

human ENPP1 = target: T2, human ENPP1 (Homo sapiens, UniProt P22413); experiment: ENPP1 assay with ATP substrate (Transcreener AMP2/GMP2 TR-FRET); type: biochemical; conditions: 1 hour at room temperature
T2 construct: made in house
T2 sequence (P22413 1-925): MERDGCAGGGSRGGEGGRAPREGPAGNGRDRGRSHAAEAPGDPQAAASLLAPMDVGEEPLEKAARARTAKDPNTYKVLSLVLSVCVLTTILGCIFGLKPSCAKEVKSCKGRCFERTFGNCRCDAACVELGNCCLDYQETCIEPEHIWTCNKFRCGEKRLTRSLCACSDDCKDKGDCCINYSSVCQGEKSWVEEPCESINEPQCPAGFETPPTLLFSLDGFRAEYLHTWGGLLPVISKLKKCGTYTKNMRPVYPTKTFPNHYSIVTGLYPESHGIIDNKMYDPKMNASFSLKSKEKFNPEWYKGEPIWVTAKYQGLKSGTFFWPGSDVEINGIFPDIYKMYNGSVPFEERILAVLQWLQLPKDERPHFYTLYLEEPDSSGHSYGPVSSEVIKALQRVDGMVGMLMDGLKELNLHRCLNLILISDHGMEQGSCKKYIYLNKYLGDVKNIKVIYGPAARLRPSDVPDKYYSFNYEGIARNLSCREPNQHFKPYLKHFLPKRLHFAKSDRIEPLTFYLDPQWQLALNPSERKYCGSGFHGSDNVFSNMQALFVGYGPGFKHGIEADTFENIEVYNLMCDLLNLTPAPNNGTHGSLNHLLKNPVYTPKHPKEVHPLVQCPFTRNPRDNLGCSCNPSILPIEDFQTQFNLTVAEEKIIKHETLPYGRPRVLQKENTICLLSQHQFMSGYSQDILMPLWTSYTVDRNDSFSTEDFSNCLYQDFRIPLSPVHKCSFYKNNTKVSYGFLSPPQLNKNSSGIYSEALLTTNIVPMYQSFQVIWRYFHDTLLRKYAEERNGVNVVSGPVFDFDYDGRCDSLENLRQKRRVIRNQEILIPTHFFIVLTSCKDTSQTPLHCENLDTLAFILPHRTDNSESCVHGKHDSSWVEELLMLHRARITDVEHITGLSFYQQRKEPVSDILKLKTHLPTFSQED
Procedure, shortened: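 5′-AMP from ATP hydrolysis (300 nM ATP stock added; enzyme added as 8.5 μM stock) detected by competitive TR-FRET. Buffer: 50 mM Tris pH 7.5, 1 mM TCEP, 2 mM MgCl2, 0.005% Tween 20, 1% DMSO. Reaction 1 h at room temperature, EDTA stop. IC50 from 2-parameter variable-slope fit.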

In the case of `COc1cc(S(N)(=O)=O)ccc1CNc1ncnc2c1cnn2C` [Example 2.3, 3-Methoxy-4-(((1-methyl-1H-pyrazolo[3,4-d]pyrimidin-4-yl)amino)methyl)-benzenesulfonamide], the IC50 (ENPP3) is reported as 1 to 20 µM and the IC50 (human ENPP1) is reported as 0.1 to 1 µM.

With `Cn1ncc2c(NCc3ccc(S(N)(=O)=O)c(Cl)c3)ncnc21` [Example 2.4, 2-Chloro-4-(((1-methyl-1H-pyrazolo[3,4-d]pyrimidin-4-yl)amino)methyl)-benzenesulfonamide] the IC50 (ENPP3) was 1 to 20 µM and the IC50 (human ENPP1) was 0.1 to 1 µM.

With `Cn1ncc2c(N3CCC(NCCCc4ccncc4)CC3)ncnc21` [Example 2.5, 1-(1-Methyl-1H-pyrazolo[3,4-d]pyrimidin-4-yl)-N-(3-(pyridin-4-yl)propyl)piperidin-4-amine] the IC50 (ENPP3) was > 20 µM and the IC50 (human ENPP1) was > 20 µM.

`CN1CCN(c2nc(N3CCC(NCCCc4ccncc4)CC3)c3cnn(C)c3n2)CC1` [Example 2.6, 1-(1-Methyl-6-(4-methylpiperazin-1-yl)-1H-pyrazolo[3,4-d]pyrimidin-4-yl)-N-(3-(pyridin-4-yl)propyl)piperidin-4-amine] was tested, and the IC50 (ENPP3) was > 20 µM and the IC50 (human ENPP1) was > 20 µM.

For `Cn1ncc2c(N3CCC(NCCCc4ccncc4)CC3)nc(-c3ccccc3)nc21` [Example 2.7, 1-(1-Methyl-6-phenyl-1H-pyrazolo[3,4-d]pyrimidin-4-yl)-N-(3-(pyridin-4-yl)propyl)piperidin-4-amine], the IC50 (ENPP3) was > 20 µM and the IC50 (human ENPP1) was > 20 µM.

For `Cn1cnc2c(NCc3ccc(S(N)(=O)=O)cc3)ncnc21` [Example 2.8, 4-(((9-Methyl-9H-purin-6-yl)amino)methyl)benzenesulfonamide], the IC50 (ENPP3) was 1 to 20 µM and the IC50 (human ENPP1) was > 20 µM.

For `Cn1ncc2c(NCc3ccc(S(N)(=O)=O)cc3)nc(-c3ccccn3)nc21` [Example 2.10, 4-(((1-Methyl-6-(pyridin-2-yl)-1H-pyrazolo[3,4-d]pyrimidin-4-yl)amino)methyl)-benzenesulfonamide], the IC50 (ENPP3) was 1 to 20 µM and the IC50 (human ENPP1) was < 0.1 µM.

Molecule `Cn1ncc2c(NCc3ccc(S(N)(=O)=O)cc3)nc(N3CCCCC3)nc21` [Example 2.14, 4-(((1-Methyl-6-(piperidin-1-yl)-1H-pyrazolo[3,4-d]pyrimidin-4-yl)amino)methyl)-benzenesulfonamide] has an IC50 (ENPP3) of 0.1 to 1 µM and an IC50 (human ENPP1) of 1 to 20 µM.

For `Cn1ncc2c(N3CCC(NCCCc4ccncc4)CC3)nc(-c3ccccn3)nc21` [Example 2.20, 1-(1-Methyl-6-(pyridin-2-yl)-1H-pyrazolo[3,4-d]pyrimidin-4-yl)-N-(3-(pyridin-4-yl)propyl)piperidin-4-amine], the IC50 (ENPP3) was > 20 µM and the IC50 (human ENPP1) was > 20 µM.

`Cn1ncc2c(NCc3ccc(S(N)(=O)=O)s3)nc(-c3ccccn3)nc21` [Example 2.24, 5-(((1-Methyl-6-(pyridin-2-yl)-1H-pyrazolo[3,4-d]pyrimidin-4-yl)amino)methyl)thiophene-2-sulfonamide] showed an IC50 (ENPP3) of 0.1 to 1 µM and an IC50 (human ENPP1) of 0.1 to 1 µM.

For `Cn1ncc2c(NCc3ccc(S(N)(=O)=O)cc3)ncnc21` [Example 2.25, 4-(((1-Methyl-1H-pyrazolo[3,4-d]pyrimidin-4-yl)amino)methyl)benzenesulfonamide], the IC50 (ENPP3) was 1 to 20 µM and the IC50 (human ENPP1) was < 0.1 µM.

For `Cc1nc(NCc2ccc(S(N)(=O)=O)cc2)c2cnn(C)c2n1` [Example 2.26, 4-(((1,6-Dimethyl-1H-pyrazolo[3,4-d]pyrimidin-4-yl)amino)methyl)benzenesulfonamide], the IC50 (ENPP3) was 0.1 to 1 µM and the IC50 (human ENPP1) was < 0.1 µM.

With `CNc1nc(NCc2ccc(S(N)(=O)=O)cc2)c2cnn(C)c2n1` [Example 2.27, 4-(((1-Methyl-6-(methylamino)-1H-pyrazolo[3,4-d]pyrimidin-4-yl)amino)methyl)-benzenesulfonamide] the IC50 (ENPP3) was 0.1 to 1 µM and the IC50 (human ENPP1) was < 0.1 µM.

Molecule `CN(C)c1nc(NCc2ccc(S(N)(=O)=O)cc2)c2cnn(C)c2n1` [Example 2.28, 4-(((6-(Dimethylamino)-1-methyl-1H-pyrazolo[3,4-d]pyrimidin-4-yl)amino)methyl)-benzenesulfonamide] has an IC50 (ENPP3) of 0.1 to 1 µM and an IC50 (human ENPP1) of 1 to 20 µM.

In the case of `Cn1ncc2c(NCc3ccc(S(N)(=O)=O)cc3)nc(N3CCOCC3)nc21` [Example 2.29, 4-(((1-Methyl-6-morpholino-1H-pyrazolo[3,4-d]pyrimidin-4-yl)amino)methyl)-benzenesulfonamide], the IC50 (ENPP3) is reported as 0.1 to 1 µM and the IC50 (human ENPP1) is reported as > 20 µM.

For `Cn1ncc2c(NCc3ccc(S(N)(=O)=O)cc3)nc(NC3CCCCC3)nc21` [Example 2.30, 4-(((6-(Cyclohexylamino)-1-methyl-1H-pyrazolo[3,4-d]pyrimidin-4-yl)amino)methyl)-benzenesulfonamide], the IC50 (ENPP3) was 1 to 20 µM and the IC50 (human ENPP1) was 1 to 20 µM.

Work on `CCN(C)c1nc(NCc2ccc(S(N)(=O)=O)cc2)c2cnn(C)c2n1` [Example 2.31, 4-(((6-(Ethyl(methyl)amino)-1-methyl-1H-pyrazolo[3,4-d]pyrimidin-4-yl)amino)methyl)-benzenesulfonamide] yielded an IC50 (ENPP3) of 0.1 to 1 µM and an IC50 (human ENPP1) of 1 to 20 µM.

With `CN(Cc1ccccc1)c1nc(NCc2ccc(S(N)(=O)=O)cc2)c2cnn(C)c2n1` [Example 2.32, 4-(((6-(Benzyl(methyl)amino)-1-methyl-1H-pyrazolo[3,4-d]pyrimidin-4-yl)amino)methyl)-benzenesulfonamide] the IC50 (ENPP3) was 0.1 to 1 µM and the IC50 (human ENPP1) was > 20 µM.

In the case of `CN1CCN(c2nc(NCc3ccc(S(N)(=O)=O)cc3)c3cnn(C)c3n2)CC1` [Example 2.34, 4-(((1-Methyl-6-(4-methylpiperazin-1-yl)-1H-pyrazolo[3,4-d]pyrimidin-4-yl)amino)methyl)-benzenesulfonamide], the IC50 (ENPP3) is reported as 0.1 to 1 µM and the IC50 (human ENPP1) is reported as > 20 µM.

With `Cn1ncc2c(NCc3ccc(S(N)(=O)=O)cc3)nc(NC3CC3)nc21` [Example 2.35, 4-(((6-(Cyclopropylamino)-1-methyl-1H-pyrazolo[3,4-d]pyrimidin-4-yl)amino)methyl)-benzenesulfonamide] the IC50 (ENPP3) was 0.1 to 1 µM and the IC50 (human ENPP1) was 0.1 to 1 µM.

`CN(c1ccccc1)c1nc(NCc2ccc(S(N)(=O)=O)cc2)c2cnn(C)c2n1` [Example 2.36, 4-(((1-Methyl-6-(methyl(phenyl)amino)-1H-pyrazolo[3,4-d]pyrimidin-4-yl)amino)methyl)-benzenesulfonamide] was tested, and the IC50 (ENPP3) was 0.1 to 1 µM and the IC50 (human ENPP1) was > 20 µM.

For `Cn1ncc2c(NCc3ccc(S(N)(=O)=O)cc3)nc(N)nc21` [Example 2.37, 4-(((6-Amino-1-methyl-1H-pyrazolo[3,4-d]pyrimidin-4-yl)amino)methyl)-benzenesulfonamide], the IC50 (ENPP3) was 0.1 to 1 µM and the IC50 (human ENPP1) was 0.1 to 1 µM.

In the case of `NS(=O)(=O)c1ccc(CNc2ncnc3c2cnn3-c2ccccc2)cc1` [Example 2.38, 4-(((1-Phenyl-1H-pyrazolo[3,4-d]pyrimidin-4-yl)amino)methyl)benzenesulfonamide], the IC50 (ENPP3) is reported as 1 to 20 µM and the IC50 (human ENPP1) is reported as 1 to 20 µM.

With `C=Cc1nc(NCc2ccc(S(N)(=O)=O)cc2)c2cnn(C)c2n1` [Example 2.39, 4-(((1-Methyl-6-vinyl-1H-pyrazolo[3,4-d]pyrimidin-4-yl)amino)methyl)benzenesulfonamide] the IC50 (ENPP3) was < 0.1 µM and the IC50 (human ENPP1) was < 0.1 µM.

With `CCc1nc(NCc2ccc(S(N)(=O)=O)cc2)c2cnn(C)c2n1` [Example 2.40, 4-(((6-Ethyl-1-methyl-1H-pyrazolo[3,4-d]pyrimidin-4-yl)amino)methyl)benzenesulfonamide] the IC50 (ENPP3) was 0.1 to 1 µM and the IC50 (human ENPP1) was < 0.1 µM.
